Assays:
[1] = Storage at high humidity and/or elevated temperature; type: physicochemical
Method: A sample of Example 3 (Form 3) was stored at 25° C. and 97% RH for 7 days.
A sample of Example 3 (Form 3) was stored at 40° C. and 75% RH for 7 days.

[2] = Preliminary stability study, related substances by HPLC; type: physicochemical; details: 25° C./60% RH stability
Method: Analysis of samples of sulforaphane:alpha-cyclodextrin complexes as prepared herein were carried out by HPLC according to the following method: • Column—Phenomenex Gemini C18, 5 μm, 110 Å, 250×4.6 mm; • Mobile Phase A: Water (+0.1% TFA); • Mobile Phase B: Acetonitrile (+0.1% TFA); • Flow: 1.5 mL/min; • Injection Volume: 10 μL; • Column Temperature: 25° C.; • Run Time: 40 minutes; • Sample preparation—Accurately weighed and transferred about 320 mg±30 mg of the sample to a 25-mL volumetric flask, added about 15 mL of diluent (70% water, 30% acetonitrile, 0.1% TFA) and mixed until dissolved. Diluted to volume with diluent and mixed. Transferred 3-4 mL to a syringe and filtered using a 0.45 PTFE filter, discarding the first 1-2 ml, and filtered into an autosampler vial and sealed with PTFE lined cap (prepared in duplicate); • HPLC Gradient according to Table 12
Sulforaphane and certain related impurity peaks are summarised in Table 13, Characterisation of the impurities was carried out by LC-MS and ^1H-NMR. Relative Retention Times (RRT) are based on the HPLC method described above.
Samples of Form 1 (batch ref. LS19-0004-S-8002), Form 3 prepared by minimally-agitated drying (Example 5.3; batch ref. 491-PAL-18) and Form 3 prepared by continuously-agitated filter drying (Example 5B—trial 5; batch ref. 00173-005) were stored at 5° C. (Table 14) and at 25° C./60% RH (Table 15) for 8 weeks in 60 ml Duma® bottles fitted with 45 mm Duma® caps and samples were analysed by HPLC according to the above method.

| Compound | decomposition by 1H-NMR ([1]; 25° C. and 97% RH for 7 days) | form by XRPD ([1]; 25° C. and 97% RH for 7 days) | decomposition by 1H-NMR ([1]; 40° C. and 75% RH for 7 days) | Related substances, HPLC RRT 0.56 (Dimer) ([2]; 8 wk) [% Area] | Related substances, HPLC RRT 0.60 (α-CD adduct) ([2]; 8 wk) [% Area] | Related substances, HPLC RRT 1.14 (Mixed dimer) ([2]; 8 wk) [% Area] | Related substances, HPLC RRT 1.21 (Erysolin) ([2]; 8 wk) [% Area] | Related substances, HPLC RRT 1.58 (Thioether dimer) ([2]; 8 wk) [% Area] | Related substances, Total Impurities ([2]; 8 wk) [% Area] | Related substances, HPLC RRT 0.56 (Dimer) ([2]; Initial) [% Area] | Related substances, HPLC RRT 0.60 (α-CD adduct) ([2]; Initial) [% Area] | Related substances, HPLC RRT 1.14 (Mixed dimer) ([2]; Initial) [% Area] | Related substances, HPLC RRT 1.21 (Erysolin) ([2]; Initial) [% Area] | Related substances, HPLC RRT 1.58 (Thioether dimer) ([2]; Initial) [% Area] | Related substances, Total Impurities ([2]; Initial) [% Area] |
| --- | --- | --- | --- | --- | --- | --- | --- | --- | --- | --- | --- | --- | --- | --- | --- |
| C[S+]([O-])CCCCN=C=S.OC[C@H]1O[C@@H]2O[C@H]3[C@H](O)[C@@H](O)[C@@H](O[C@H]4[C@H](O)[C@@H](O)[C@@H](O[C@H]5[C@H](O)[C@@H](O)[C@@H](O[C@H]6[C@H](O)[C@@H](O)[C@@H](O[C@H]7[C@H](O)[C@@H](O)[C@@H](O[C@H]1[C@H](O)[C@H]2O)O[C@@H]7CO)O[C@@H]6CO)O[C@@H]5CO)O[C@@H]4CO)O[C@@H]3CO [Form 3] | no decomposition was evident | converted at this very high humidity level to Form 1 | some decomposition had occurred |  |  |  |  |  |  |  |  |  |  |  |  |
| C[S+]([O-])CCCCN=C=S.OCC1OC2OC3C(CO)OC(OC4C(CO)OC(OC5C(CO)OC(OC6C(CO)OC(OC7C(CO)OC(OC1C(O)C2O)C(O)C7O)C(O)C6O)C(O)C5O)C(O)C4O)C(O)C3O (stereo not drawn) [Form 1] |  |  |  | 0.20 | 0.10 | 0.06 | 0.30 | <0.05 | 0.99 | 0.19 | 0.06 | <0.05 | 0.28 | <0.05 | 0.90 |

— patent US12590057B2, “Crystalline complexes” (Theracryf PLC, priority 2020, dated 2026)
